Experimental data: patent US20250282785A1, “PYRROLIDINONE DERIVATIVES AS INHIBITORS OF NF KAPPA B INDUCING KINASE” (priority 2022, published 2025)
Read-outs that look alike come from different tables or passages of the source.

Columns and labels:
[1] = molecular target: Recombinant Human NF-Kappab-Inducing Kinase (NIK/MAP3K14) (Homo sapiens, UniProt Q99558); test: Inhibition of auto-phosphorylation of recombinant human NIK/MAP3K14 (AlphaScreen); format: biochemical
Procedure, shortened: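 GST-tagged NIK (1 nM) auto-phosphorylation with 5 µM ATP in Tris pH 7.5/MgCl2 buffer, 0.7% DMSO, 2 h at 25 °C. Phospho-IKK Ser176/180 antibody detected by AlphaScreen beads. Signal normalized to full-enzyme and no-ATP controls; IC50 from sigmoidal fit of % inhibition vs log concentration.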

[2] = test system: p-IKKα levels in L363 (NIK translocated multiple myeloma) cells; test: Effect of compounds on p-IKKα levels in L363 cells (AlphaLISA SureFire Ultra); format: cell-based; settings: Homo sapiens, read-out: Assay 2 IC50
Procedure, shortened: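 L363 myeloma cells were BAFF-stimulated (250 ng/ml) overnight in DMEM/0.5% BSA, then exposed 6 h at 37° C to compound (11-point 1:3 series, 0.3% DMSO) with BAFF plus 10 uM MG132. p-IKKα (Ser 176/180) was read by AlphaLISA SureFire Ultra in lysates. IC50 came from sigmoidal fits normalized to stimulated and unstimulated controls.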

[3] = NIK/MAP3K14 auto-phosphorylation, 5 microM ATP, 1 nM enzyme, 2 h at 25° C., average of values, read-out: Assay 1 IC50
[4] = L-363, L363 cells, BAFF stimulated, MG132, 6 h, average of values

Recombinant Human NF-Kappab-Inducing Kinase (NIK/MAP3K14), sequence (Q99558 whole entry): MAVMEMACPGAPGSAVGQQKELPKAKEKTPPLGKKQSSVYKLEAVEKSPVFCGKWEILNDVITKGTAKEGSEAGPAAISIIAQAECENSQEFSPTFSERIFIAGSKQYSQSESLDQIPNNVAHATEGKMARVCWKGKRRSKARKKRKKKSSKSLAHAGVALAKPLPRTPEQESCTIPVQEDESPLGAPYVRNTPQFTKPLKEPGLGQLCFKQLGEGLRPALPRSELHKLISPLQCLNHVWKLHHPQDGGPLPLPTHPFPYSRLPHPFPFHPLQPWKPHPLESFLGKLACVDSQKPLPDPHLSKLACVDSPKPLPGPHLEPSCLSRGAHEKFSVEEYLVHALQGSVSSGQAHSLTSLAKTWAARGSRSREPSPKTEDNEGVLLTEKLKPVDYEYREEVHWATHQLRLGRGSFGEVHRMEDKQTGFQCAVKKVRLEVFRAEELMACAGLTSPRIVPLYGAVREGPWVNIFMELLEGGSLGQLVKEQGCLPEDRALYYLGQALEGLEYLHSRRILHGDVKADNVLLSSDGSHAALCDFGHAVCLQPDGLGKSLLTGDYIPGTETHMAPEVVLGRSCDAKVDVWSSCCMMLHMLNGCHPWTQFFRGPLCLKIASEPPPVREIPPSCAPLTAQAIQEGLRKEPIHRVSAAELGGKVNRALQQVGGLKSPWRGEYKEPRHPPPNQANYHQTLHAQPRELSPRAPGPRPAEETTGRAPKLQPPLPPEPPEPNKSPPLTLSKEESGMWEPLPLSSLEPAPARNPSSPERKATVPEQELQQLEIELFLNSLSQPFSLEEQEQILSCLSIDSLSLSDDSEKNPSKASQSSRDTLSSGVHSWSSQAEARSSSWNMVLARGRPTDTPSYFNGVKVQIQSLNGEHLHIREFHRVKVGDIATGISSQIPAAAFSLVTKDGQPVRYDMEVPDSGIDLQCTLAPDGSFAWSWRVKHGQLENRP

Structure (SMILES) | IC50 [1, 3] | IC50 [2, 4] | IC50 [1] | IC50 ([2]; L-363, 6 h)
CC(=O)N1CC(Nc2sc(-c3cccc(-c4cc([C@]5(O)CCN(C)C5=O)on4)c3)nc2C(N)=O)C1 [Example 216, (R)-5-((1-Acetylazetidin-3-yl)amino)-2-(3-(5-(3-hydroxy-1-methyl-2-oxopyrrolidin-3-yl)isoxazol-3-yl)phenyl)thiazole-4-carboxamide] | < 100 nM | > 501 nM |  | 
Cc1sc(-c2cccc(-c3cc([C@]4(O)CCN(C)C4=O)on3)c2)nc1C(N)=O [Example 217, (R)-2-(3-(5-(3-Hydroxy-1-methyl-2-oxopyrrolidin-3-yl)isoxazol-3-yl)phenyl)-5-methylthiazole-4-carboxamide] | < 100 nM | 100 to 500 nM |  | 
CCc1sc(-c2cccc(-c3cc([C@]4(O)CCN(C)C4=O)on3)c2)nc1C(N)=O [Example 218, (R)-5-Ethyl-2-(3-(5-(3-hydroxy-1-methyl-2-oxopyrrolidin-3-yl)isoxazol-3-yl)phenyl)thiazole-4-carboxamide] | < 100 nM | 100 to 500 nM |  | 
CC(C)c1sc(-c2cccc(-c3cc([C@]4(O)CCN(C)C4=O)on3)c2)nc1C(N)=O [Example 219, (R)-2-(3-(5-(3-Hydroxy-1-methyl-2-oxopyrrolidin-3-yl)isoxazol-3-yl)phenyl)-5-isopropylthiazole-4-carboxamide] | < 100 nM | > 501 nM |  | 
CC(C)Cc1sc(-c2cccc(-c3cc([C@]4(O)CCN(C)C4=O)on3)c2)nc1C(N)=O [Example 220, (R)-2-(3-(5-(3-Hydroxy-1-methyl-2-oxopyrrolidin-3-yl)isoxazol-3-yl)phenyl)-5-isobutylthiazole-4-carboxamide] |  |  | < 100 nM | > 501 nM
CN1CC[C@@](O)(c2cc(-c3cccc(-c4nc(C(N)=O)c(C5CCC5)s4)c3)no2)C1=O [Example 221, (R)-5-Cyclobutyl-2-(3-(5-(3-hydroxy-1-methyl-2-oxopyrrolidin-3-yl)isoxazol-3-yl)phenyl)thiazole-4-carboxamide] | < 100 nM | > 501 nM |  | 
CN1CC[C@@](O)(c2cc(-c3cccc(-c4nc(C(N)=O)c(C(F)F)s4)c3)no2)C1=O [Example 222, (R)-5-(Difluoromethyl)-2-(3-(5-(3-hydroxy-1-methyl-2-oxopyrrolidin-3-yl)isoxazol-3-yl)phenyl)thiazole-4-carboxamide] | < 100 nM | 100 to 500 nM |  | 
CN1CC[C@@](O)(c2cc(-c3cccc(-c4nc(C(N)=O)c(CNC5CCCC5)s4)c3)no2)C1=O [Example 223, (R)-5-((Cyclopentylamino)methyl)-2-(3-(5-(3-hydroxy-1-methyl-2-oxopyrrolidin-3-yl)isoxazol-3-yl)phenyl)thiazole-4-carboxamide] | < 100 nM | > 501 nM |  | 
COc1cc(-c2cccc(-c3cc([C@]4(O)CCN(C)C4=O)on3)c2)nc2[nH]ncc12 [Example 224, (R)-3-Hydroxy-3-(3-(3-(4-methoxy-1H-pyrazolo[3,4-b]pyridin-6-yl)phenyl)isoxazol-5-yl)-1-methylpyrrolidin-2-one] | 100 to 500 nM | > 501 nM |  | 
CN1CC[C@@](O)(c2cc(-c3cccc(-c4cc(C(F)(F)F)c5cn[nH]c5n4)c3)no2)C1=O [Example 225, (R)-3-Hydroxy-1-methyl-3-(3-(3-(4-(trifluoromethyl)-1H-pyrazolo[3,4-b]pyridin-6-yl)phenyl)isoxazol-5-yl)pyrrolidin-2-one] | 100 to 500 nM | > 501 nM |  | 
CN1CC[C@@](O)(c2cc(-c3cccc(-c4ncc5cn[nH]c5n4)c3)no2)C1=O [Example 226, (R)-3-(3-(3-(1H-Pyrazolo[3,4-d]pyrimidin-6-yl)phenyl)isoxazol-5-yl)-3-hydroxy-1-methylpyrrolidin-2-one] | > 501 nM | > 501 nM |  | 
CN1CC[C@@](O)(c2cc(-c3cccc(-c4ncc5cnn(C)c5n4)c3)no2)C1=O [Example 227, (R)-3-Hydroxy-1-methyl-3-(3-(3-(1-methyl-1H-pyrazolo[3,4-d]pyrimidin-6-yl)phenyl)isoxazol-5-yl)pyrrolidin-2-one] | 100 to 500 nM | > 501 nM |  | 
CN1CC[C@@](O)(c2cc(-c3cccc(-c4ccc5[nH]ncc5n4)c3)no2)C1=O [Example 228, (R)-3-(3-(3-(1H-Pyrazolo[4,3-b]pyridin-5-yl)phenyl)isoxazol-5-yl)-3-hydroxy-1-methylpyrrolidin-2-one] | 100 to 500 nM | > 501 nM |  | 
CN1CC[C@@](O)(c2cc(-c3cccc(-c4ccc5c(cnn5C)n4)c3)no2)C1=O [Example 229, (R)-3-Hydroxy-1-methyl-3-(3-(3-(1-methyl-1H-pyrazolo[4,3-b]pyridin-5-yl)phenyl)isoxazol-5-yl)pyrrolidin-2-one] | > 501 nM | > 501 nM |  | 
COc1cc(-c2cccc(-c3cc([C@]4(O)CCN(C)C4=O)on3)c2)nc2c1c(C)nn2C [Example 230, (R)-3-Hydroxy-3-(3-(3-(4-methoxy-1,3-dimethyl-1H-pyrazolo[3,4-b]pyridin-6-yl)phenyl)isoxazol-5-yl)-1-methylpyrrolidin-2-one] | 100 to 500 nM | > 501 nM |  | 
CN1CC[C@@](O)(c2cc(-c3cccc(-c4nc(C(N)=O)c(CN5CCCC5)s4)c3)no2)C1=O [Example 231, (R)-2-(3-(5-(3-Hydroxy-1-methyl-2-oxopyrrolidin-3-yl)isoxazol-3-yl)phenyl)-5-(pyrrolidin-1-ylmethyl)thiazole-4-carboxamide] | < 100 nM | > 501 nM |  | 
CN1CC[C@@](O)(c2cc(-c3cccc(-c4nc(C(N)=O)c5n4CCN(CCC(F)(F)F)C5)c3)no2)C1=O [Example 232, (R)-3-(3-(5-(3-Hydroxy-1-methyl-2-oxopyrrolidin-3-yl)isoxazol-3-yl)phenyl)-7-(3,3,3-trifluoropropyl)-5,6,7,8-tetrahydroimidazo[1,5-a]pyrazine-1-carboxamide] | > 501 nM | > 501 nM |  | 
CC(C)N1CCn2c(-c3cccc(-c4cc([C@]5(O)CCN(C)C5=O)on4)c3)nc(C(N)=O)c2C1 [Example 233, (R)-3-(3-(5-(3-Hydroxy-1-methyl-2-oxopyrrolidin-3-yl)isoxazol-3-yl)phenyl)-7-isopropyl-5,6,7,8-tetrahydroimidazo[1,5-a]pyrazine-1-carboxamide] | > 501 nM | > 501 nM |  | 
CN1CC[C@@](O)(c2cc(-c3cccc(-c4nc(C(N)=O)c5n4CCN(Cc4ccccc4)C5)c3)no2)C1=O [Example 234, (R)-7-Benzyl-3-(3-(5-(3-hydroxy-1-methyl-2-oxopyrrolidin-3-yl)isoxazol-3-yl)phenyl)-5,6,7,8-tetrahydroimidazo[1,5-a]pyrazine-1-carboxamide] | > 501 nM | > 501 nM |  | 
Cc1ncc(C#N)cc1Nc1sc(-c2cccc(-c3cc([C@]4(O)CCN(C)C4=O)on3)c2)nc1C(N)=O [Example 235, (R)-5-((5-Cyano-2-methylpyridin-3-yl)amino)-2-(3-(5-(3-hydroxy-1-methyl-2-oxopyrrolidin-3-yl)isoxazol-3-yl)phenyl)thiazole-4-carboxamide] | < 100 nM | < 100 nM |  | 
CN1CC[C@@](O)(c2cc(-c3cccc(-c4nc(C(N)=O)c(Nc5ccn(C)n5)s4)c3)no2)C1=O [Example 236, (R)-2-(3-(5-(3-Hydroxy-1-methyl-2-oxopyrrolidin-3-yl)isoxazol-3-yl)phenyl)-5-((1-methyl-1H-pyrazol-3-yl)amino)thiazole-4-carboxamide] | < 100 nM | < 100 nM |  | 
